According to patent US11198704B2, “Butane-tetraol-based amphiphiles and uses thereof” (Industry-University Cooperation Foundation Hanyang …, priority 2016, dated 2021):

Assays:
[1] = Hydrodynamic radius and size distribution of micelles by dynamic light scattering (DLS); type: physicochemical; conditions: detergent 1.0% by weight
Description: A method of measuring the radius of the micelles is not particularly limited, but the radius of the micelles may be measured using methods well known in the related art. For example, the radius of the micelles may be measured through a dynamic light scattering (DLS) experiment.
(§1) Specifically, the critical micelle concentration (CMC) was measured using diphenylhexatriene (DPH) as a fluorescent stain, and the hydrodynamic radii (Rh) of the micelles formed by each preparation (1.0% by weight) were measured through a dynamic light scattering (DLS) experiment.

[2] = test system: uric acid-xanthine/H+ symporter (UapA), UapAG411VΔ1-11 GFP fusion; assay: Thermal stability of UapA solubilized by detergent, fluorescence size exclusion chromatography (FSEC); design: species or system Aspergillus nidulans; conditions: detergent 1.0% by weight; 40° C. for 10 minutes
Description: A UapA protein is a uric acid-xanthine/H^+ symporter in Aspergillus nidulans. An experiment for measuring structural stability of a uric acid-xanthine/H^+ symporter (UapA) by BTMs in an aqueous solution was performed. The structural stability of UapA was measured using fluorescence size exclusion chromatography (FSEC).
Specifically, UapAG411VΔ1-11 (hereinafter referred to as ‘UapA’) was expressed as a GFP fusion protein in a Saccharomyces cerevisiae FGY217 strain, and divided into a sample buffer (20 mM Tris (pH 7.5), 150 mM NaCl, 0.03% DDM, and 0.6 mM xanthine). This procedure was performed according to the method disclosed in the article by J. Leung et al. (Mol. Membr. Biol. 2013, 30, 32-42). Membranes containing UapA were re-suspended in PBS (10 mM imidazole pH 8.0, 150 mM NaCl, and 10% glycerol), and a concentration of proteins was measured. […] 100 μL aliquots were removed from the respective tubes, and fluorescence reading on each sample was performed before and after the aliquots were ultracentrifuged at 150,000 g for 10 minutes to remove insoluble matter. Water-soluble fractions remaining under each condition were subjected to fluorescence SEC (FSEC) using a Superose 6 column (GE Healthcare) equilibrated with a buffer containing a proper preparation (DDM or BTM).

[3] = target: T1, human β2 adrenergic receptor (β2AR) (Homo sapiens, UniProt P07550); assay: Structural stability of β2AR, [3H]-dihydroalprenolol ([3H]-DHA) binding; type: biochemical; conditions: BTMs without CHS, DDM with CHS
T1 construct: made in house
Description: An experiment for determining the structural stability of a human β2 adrenergic receptor (β2AR) and a G-protein-coupled receptor (GPCR) by BTMs was performed. That is, a receptor purified with DDM was diluted with a buffer solution containing only each of the BTMs without cholesteryl hemisuccinate (CHS) or a buffer solution containing DDM with CHS. The final compound concentration was CMC+0.2% by weight, and the ligand-binding characteristics of the receptor were determined through [^3H]-dihydroalprenolol ([^3H]-DHA) binding.
Specifically, a radioactive ligand binding test was performed using the following method. β2AR was purified with 0.1% DDM (D. M. Rosenbaum et al., Science, 2007, 318, 1266-1273.), and finally concentrated to approximately 10 mg/mL (approximately 200 μM). A master binding mixture containing 10 nM [^3H]-dihydroalprenolol (DHA) supplemented with 0.5 mg/mL BSA in each 0.2% amphiphilic compound (DDM or BTMs) was prepared using the β2AR purified with DDM. The ligand-binding characteristics of the receptor purified with the amphiphilic compound at 0.2 pmol was monitored at regular intervals while the receptor was incubated at room temperature for 3 days. The ligand-binding characteristics of the receptor were determined using a water-soluble radioactive ligand binding assay as will be described below. The receptor purified with DDM or each of the BTMs was incubated with 10 nM [^3H]-DHA at room temperature for 30 minutes. The mixture was loaded on a G-50 column, and flow-through fractions were collected using 1 mL of a binding buffer (20 mM HEPES (pH 7.5) supplemented with 0.5 mg/mL BSA and 20×CMC of each amphiphilic compound, 100 mM NaCl). Then, the G-50 column was filled with 15 mL of a scintillation fluid. Receptor-bound [^3H]-DHA was counted using a scintillation counter (Beckman). Non-specific binding of [^3H]-DHA was determined by adding 2 μM of alprenolol (Sigma) in the same binding reaction. The binding affinity of [^3H]-DHA was plotted on a column graph, and each experiment was performed in triplicate.

[4] = Critical micelle concentration (CMC) using diphenylhexatriene (DPH) fluorescent stain; type: physicochemical; conditions: aqueous solution
Description: A method of measuring the CMC is not particularly limited, but the CMC may be measured using methods well known in the related art. For example, the CMC may be measured by a fluorescence staining method using diphenylhexatriene (DPH).
as §1

T1 sequence (P07550 whole entry): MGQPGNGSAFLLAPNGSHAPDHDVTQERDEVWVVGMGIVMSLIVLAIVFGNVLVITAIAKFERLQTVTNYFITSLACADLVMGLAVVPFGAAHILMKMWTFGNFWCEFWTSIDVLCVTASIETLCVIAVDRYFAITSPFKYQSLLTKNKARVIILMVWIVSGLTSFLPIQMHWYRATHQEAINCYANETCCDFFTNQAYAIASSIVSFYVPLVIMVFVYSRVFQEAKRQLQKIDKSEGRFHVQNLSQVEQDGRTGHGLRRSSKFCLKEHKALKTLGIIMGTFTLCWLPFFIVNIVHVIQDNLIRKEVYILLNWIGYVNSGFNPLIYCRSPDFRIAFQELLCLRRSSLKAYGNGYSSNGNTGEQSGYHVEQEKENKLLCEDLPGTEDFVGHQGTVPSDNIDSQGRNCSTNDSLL

For CCCCCCCCCCCCO[C@@H]1O[C@H](CO)[C@@H](O[C@H]2O[C@H](CO)[C@@H](O)[C@H](O)[C@H]2O)[C@H](O)[C@H]1O [DDM, n-dodecyl-β-D-maltopyranoside, reference compound], the “Rh (nm), hydrodynamic radius of micelles” value [1] was 3.4 ± 0.03 nm, the “UapA monodisperse peak in FSEC (extraction and structural stability)” value [2] was “monodisperse peak with a relatively high strength” and the “initial ligand-binding characteristics of β2AR ([3H]-DHA)” value ([3]; CMC+0.2% by weight) was “high ability to bind to a ligand”. The “remaining ligand-binding ability of β2AR, % of initial” value ([3]; after 3 days of incubation at room temperature) was 10%, the “CMC” value [4] was ~0.17 mM and the “CMC (% by weight)” value [4] was ~0.0087 % by weight.
